Assays:
[1] = target: Voltage-gated inwardly rectifying potassium channel KCNH2 (Homo sapiens, UniProt Q12809); experiment: Inhibition of human ERG expressed in CHO cells by automated whole-cell patch clamp electrophysiology system; assay type: cell-based
[2] = Displacement of [Phe13, [125I]Tyr19]-MCH from human MCHR1 E4Q/A5T double mutant expressed in HEK293 cell membranes after 90 mins by scintillation counting analysis
hERG (KCNH2) [3] = target: T1, hERG (KCNH2) (Homo sapiens, UniProt Q12809); experiment: Inhibition of human ERG expressed in CHO cells at 0.3 uM by automated whole-cell patch clamp electrophysiology system relative to control; assay type: cell-based; conditions: CHO cells expressing human ERG
[4] = Lipophilicity, log P of the compound by HPLC analysis; assay type: physicochemical
[5] = target: Melanin-concentrating hormone receptor 1 (Homo sapiens, UniProt Q99705); experiment: Antagonist activity at human MCHR1 expressed in HEK293 cells assessed as inhibition of MCH-stimulated Ca2+ influx preincubated for 120 mins followed by MCH challenge by FLIPR assay; assay type: functional, cell-based
hERG (KCNH2) [6] = target: T1, hERG (KCNH2); experiment: Inhibition of human ERG expressed in CHO cells at 1 uM by automated whole-cell patch clamp electrophysiology system relative to control; assay type: cell-based; conditions: CHO cells expressing human ERG
[7] = Plasma concentration in Sprague-Dawley rat at 15 mg/kg, po qd measured at 20 hrs post dose; assay type: ADME, organism-based
Rattus norvegicus [8] = experiment: Antiobesity activity in Sprague-Dawley rat assessed as body weight loss at 15 mg/kg, po qd administered 1 hr prior to onset of dark cycle measured for 7 days relative to vehicle-treated control; assay type: functional
[9] = Drug uptake in Sprague-Dawley rat brain at 15 mg/kg, po qd measured at 20 hrs post dose; assay type: ADME, organism-based; conditions: read-out: Drug uptake
[10] = Fraction unbound in Sprague-Dawley rat plasma at 15 mg/kg, po qd; assay type: ADME, organism-based
Plasma [11] = experiment: Plasma concentration in Sprague-Dawley rat assessed as 2-(4-chlorophenyl)-5-(4-(2-hydroxy-2-methylpropoxy)-3-methoxyphenyl)-4,5-dihydropyrrolo[3,4-c]pyrazol-6(2H)-one at 30 mg/kg, po qd measured at 20 hrs post dose; assay type: ADME, organism-based; conditions: in vivo
Plasma [12] = experiment: Fraction unbound in Sprague-Dawley rat plasma assessed as 2-(4-chlorophenyl)-5-(4-(2-hydroxy-2-methylpropoxy)-3-methoxyphenyl)-4,5-dihydropyrrolo[3,4-c]pyrazol-6(2H)-one at 30 mg/kg, po qd; assay type: ADME, organism-based; conditions: in vivo
Rattus norvegicus [13] = experiment: Antiobesity activity in Sprague-Dawley rat assessed as 2-(4-chlorophenyl)-5-(4-(2-hydroxy-2-methylpropoxy)-3-methoxyphenyl)-4,5-dihydropyrrolo[3,4-c]pyrazol-6(2H)-one-mediated body weight loss at 30 mg/kg, po qd administered 1 hr prior to onset of dark cycle measured for 4 days relative to vehicle-treated control; assay type: functional
[14] = target: T2, Melanin-concentrating hormone receptor 1 (Rattus norvegicus, UniProt P97639); experiment: Antagonist activity at rat MCHR1 assessed as 2-(4-chlorophenyl)-5-(4-(2-hydroxy-2-methylpropoxy)-3-methoxyphenyl)-4,5-dihydropyrrolo[3,4-c]pyrazol-6(2H)-one
Brain [15] = experiment: Drug uptake in Sprague-Dawley rat brain assessed as 2-(4-chlorophenyl)-5-(4-(2-hydroxy-2-methylpropoxy)-3-methoxyphenyl)-4,5-dihydropyrrolo[3,4-c]pyrazol-6(2H)-one at 30 mg/kg, po qd measured at 20 hrs post dose; assay type: ADME, organism-based; conditions: in vivo, read-out: Drug uptake
Rattus norvegicus [16] = experiment: Antiobesity activity in Sprague-Dawley rat assessed as 6-(4-chlorophenyl)-3-(4-(2-hydroxy-2-methylpropoxy)-3-methoxyphenyl)thieno[3,2-d]pyrimidin-4(3H)-one-mediated body weight loss at 10 mg/kg, po qd administered 1 hr prior to onset of dark cycle measured for 7 days relative to vehicle-treated control; assay type: functional
Brain [17] = experiment: Drug uptake in Sprague-Dawley rat brain assessed as 6-(4-chlorophenyl)-3-(4-(2-hydroxy-2-methylpropoxy)-3-methoxyphenyl)thieno[3,2-d]pyrimidin-4(3H)-one at 10 mg/kg, po qd measured at 20 hrs post dose; assay type: ADME, organism-based; conditions: in vivo
[18] = Ratio of unbound concentration in Sprague-Dawley rat brain assessed as 6-(4-chlorophenyl)-3-(4-(2-hydroxy-2-methylpropoxy)-3-methoxyphenyl)thieno[3,2-d]pyrimidin-4(3H)-one at 10 mg/kg, po qd to Ki for rat MCHR1 assessed as 6-(4-chlorophenyl)-3-(4-(2-hydroxy-2-methylpropoxy)-3-methoxyphenyl)thieno[3,2-d]pyrimidin-4(3H)-one; assay type: ADME, organism-based; conditions: in vivo
Plasma [19] = experiment: Plasma concentration in Sprague-Dawley rat assessed as 6-(4-chlorophenyl)-3-(4-(2-hydroxy-2-methylpropoxy)-3-methoxyphenyl)thieno[3,2-d]pyrimidin-4(3H)-one at 10 mg/kg, po qd measured at 20 hrs post dose; assay type: ADME, organism-based; conditions: in vivo
[20] = target: T2, Melanin-concentrating hormone receptor 1; experiment: Antagonist activity at rat MCHR1 assessed as 6-(4-chlorophenyl)-3-(4-(2-hydroxy-2-methylpropoxy)-3-methoxyphenyl)thieno[3,2-d]pyrimidin-4(3H)-one
[21] = Ratio of drug level in brain to plasma in Sprague-Dawley rat assessed as 6-(4-chlorophenyl)-3-(4-(2-hydroxy-2-methylpropoxy)-3-methoxyphenyl)thieno[3,2-d]pyrimidin-4(3H)-one at 10 mg/kg, po qd measured at 20 hrs post dose
Plasma [22] = experiment: Fraction unbound in Sprague-Dawley rat plasma assessed as 6-(4-chlorophenyl)-3-(4-(2-hydroxy-2-methylpropoxy)-3-methoxyphenyl)thieno[3,2-d]pyrimidin-4(3H)-one at 10 mg/kg, po qd; assay type: ADME, organism-based; conditions: in vivo
[23] = Ratio of unbound concentration in Sprague-Dawley rat brain at 10 mg/kg, po qd to Ki for rat MCHR1; assay type: ADME, organism-based; conditions: in vivo
[24] = Plasma concentration in Sprague-Dawley rat at 1 mg/kg, po qd measured at 20 hrs post dose; assay type: ADME, organism-based
[25] = Drug uptake in Sprague-Dawley rat brain at 10 mg/kg, po qd measured at 20 hrs post dose; assay type: ADME, organism-based; conditions: read-out: Drug uptake
Rattus norvegicus [26] = experiment: Antiobesity activity in Sprague-Dawley rat assessed as body weight loss at 1 mg/kg, po qd administered 1 hr prior to onset of dark cycle measured for 7 days relative to vehicle-treated control; assay type: functional
[27] = Fraction unbound in Sprague-Dawley rat plasma at 3 mg/kg, po qd; assay type: ADME, organism-based
[28] = Plasma concentration in Sprague-Dawley rat at 10 mg/kg, po qd measured at 20 hrs post dose; assay type: ADME, organism-based
[29] = Plasma concentration in Sprague-Dawley rat at 3 mg/kg, po qd measured at 20 hrs post dose; assay type: ADME, organism-based
Rattus norvegicus [30] = experiment: Antiobesity activity in Sprague-Dawley rat assessed as body weight loss at 10 mg/kg, po qd administered 1 hr prior to onset of dark cycle measured for 7 days relative to vehicle-treated control; assay type: functional
[31] = Fraction unbound in Sprague-Dawley rat plasma at 1 mg/kg, po qd; assay type: ADME, organism-based
[32] = target: T2, Melanin-concentrating hormone receptor 1; experiment: Antagonist activity at rat MCHR1
[33] = Fraction unbound in Sprague-Dawley rat plasma at 10 mg/kg, po qd; assay type: ADME, organism-based
[34] = Drug uptake in Sprague-Dawley rat brain at 3 mg/kg, po qd measured at 20 hrs post dose; assay type: ADME, organism-based; conditions: read-out: Drug uptake
Brain [35] = experiment: Drug uptake in Sprague-Dawley rat brain at 1 mg/kg, po qd measured at 20 hrs post dose; assay type: ADME, organism-based; conditions: in vivo, BLD = below limit of detection
[36] = Ratio of unbound concentration in Sprague-Dawley rat brain at 3 mg/kg, po qd to Ki for rat MCHR1; assay type: ADME, organism-based; conditions: in vivo
Rattus norvegicus [37] = experiment: Antiobesity activity in Sprague-Dawley rat assessed as body weight loss at 3 mg/kg, po qd administered 1 hr prior to onset of dark cycle measured for 7 days relative to vehicle-treated control; assay type: functional

T2 sequence (P97639 whole entry): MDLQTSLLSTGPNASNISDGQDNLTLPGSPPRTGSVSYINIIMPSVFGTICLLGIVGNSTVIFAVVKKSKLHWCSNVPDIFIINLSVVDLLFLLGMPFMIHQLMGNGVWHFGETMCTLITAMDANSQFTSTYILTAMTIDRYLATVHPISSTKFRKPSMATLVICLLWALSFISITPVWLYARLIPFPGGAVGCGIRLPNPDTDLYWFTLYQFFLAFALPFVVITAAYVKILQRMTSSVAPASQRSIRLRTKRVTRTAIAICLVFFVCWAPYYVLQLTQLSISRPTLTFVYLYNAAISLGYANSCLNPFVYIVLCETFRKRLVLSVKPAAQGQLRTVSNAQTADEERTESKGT
Melanin-concentrating hormone receptor 1 (Homo sapiens, UniProt Q99705), sequence (Q99705 whole entry): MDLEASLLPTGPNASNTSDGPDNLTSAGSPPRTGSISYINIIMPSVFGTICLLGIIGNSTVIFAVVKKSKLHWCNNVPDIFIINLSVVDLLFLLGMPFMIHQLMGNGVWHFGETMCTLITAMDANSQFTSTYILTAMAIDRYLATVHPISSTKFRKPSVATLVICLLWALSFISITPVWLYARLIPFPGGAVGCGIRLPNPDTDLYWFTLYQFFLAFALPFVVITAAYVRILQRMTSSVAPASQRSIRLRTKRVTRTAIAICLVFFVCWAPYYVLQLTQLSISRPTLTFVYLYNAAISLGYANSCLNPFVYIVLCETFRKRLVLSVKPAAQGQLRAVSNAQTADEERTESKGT
T1 sequence (Q12809 whole entry): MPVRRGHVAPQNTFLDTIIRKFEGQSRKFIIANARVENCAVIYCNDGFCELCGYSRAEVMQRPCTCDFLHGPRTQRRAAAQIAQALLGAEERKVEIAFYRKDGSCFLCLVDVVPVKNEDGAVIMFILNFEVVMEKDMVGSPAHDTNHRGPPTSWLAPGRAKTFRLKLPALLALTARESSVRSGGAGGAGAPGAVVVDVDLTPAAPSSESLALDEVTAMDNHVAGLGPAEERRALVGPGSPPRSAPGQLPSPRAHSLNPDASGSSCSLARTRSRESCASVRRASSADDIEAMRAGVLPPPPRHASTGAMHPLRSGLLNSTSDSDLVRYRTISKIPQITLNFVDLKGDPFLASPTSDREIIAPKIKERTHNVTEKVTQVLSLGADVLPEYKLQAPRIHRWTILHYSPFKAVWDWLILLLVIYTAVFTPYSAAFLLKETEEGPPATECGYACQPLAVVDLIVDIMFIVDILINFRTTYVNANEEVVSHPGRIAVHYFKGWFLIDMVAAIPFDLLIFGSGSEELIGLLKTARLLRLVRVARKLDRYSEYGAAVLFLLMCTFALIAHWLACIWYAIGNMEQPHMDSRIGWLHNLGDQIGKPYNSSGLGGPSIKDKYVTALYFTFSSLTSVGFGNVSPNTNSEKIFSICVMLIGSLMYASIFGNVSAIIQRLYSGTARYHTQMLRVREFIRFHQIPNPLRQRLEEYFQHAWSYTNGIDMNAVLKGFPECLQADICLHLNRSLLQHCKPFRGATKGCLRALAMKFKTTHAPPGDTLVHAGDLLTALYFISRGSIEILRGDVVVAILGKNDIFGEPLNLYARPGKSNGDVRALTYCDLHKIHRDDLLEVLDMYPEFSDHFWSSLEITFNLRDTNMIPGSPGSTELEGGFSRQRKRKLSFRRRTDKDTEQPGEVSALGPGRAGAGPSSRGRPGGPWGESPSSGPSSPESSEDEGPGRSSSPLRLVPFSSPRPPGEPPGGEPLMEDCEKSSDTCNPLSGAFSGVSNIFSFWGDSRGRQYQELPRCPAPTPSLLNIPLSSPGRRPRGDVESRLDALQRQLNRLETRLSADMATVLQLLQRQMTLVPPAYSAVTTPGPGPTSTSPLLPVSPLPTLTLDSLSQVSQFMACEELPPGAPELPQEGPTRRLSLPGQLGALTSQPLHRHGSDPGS
Voltage-gated inwardly rectifying potassium channel KCNH2, sequence (Q12809 whole entry): as above

COc1cc(N2Cc3cn(-c4ccc(Cl)cc4)nc3C2=O)ccc1N1CC[C@@H](O)C1
IC50 [1]: > 80000 nM | Ki [2]: 7.1 nM

COc1cc(N2Cc3nn(-c4ccc(Cl)cc4)cc3C2=O)ccc1OCC(C)O (configuration not stated)
Ki [2]: 334 nM

COc1cc(N2Cc3cn(-c4ccc(Cl)cc4)nc3C2=O)ccc1OCCN1CCCC1
inhibition at 0.3 µM (hERG (KCNH2) [3]): 58% | logP [4]: 2.8 | Ki [2]: 0.42 nM | IC50 [5]: 3060 nM

CC(C)(C)NC1CCN(c2ccc(N3Cc4cn(-c5ccc(Cl)cc5)nc4C3=O)cn2)C1 (configuration not stated)
Ki [2]: 2.7 nM | inhibition at 1 µM (hERG (KCNH2) [6]): 71%

CC(=O)N(C)C1CCN(c2ccc(N3Cc4cn(-c5ccc(Cl)cc5)nc4C3=O)cn2)C1 (configuration not stated)
Ki [2]: 6.5 nM | inhibition at 1 µM (hERG (KCNH2) [6]): 23%

COc1cc(-n2cnc3cc(-c4ccc(Cl)cc4)sc3c2=O)ccc1OCCN1CCCC1
concentration at 20 h [7]: 378 nM | Activity (Rattus norvegicus [8]): 8.7% | concentration at 20 h [9]: 654 nM | logP [4]: 3.5 | fraction unbound [10]: 0.012 | Ki [2]: 1 nM

COc1cc(N2Cc3cn(-c4ccc(Cl)cn4)nc3C2=O)ccc1OCC(C)(C)O
Ki [2]: 44 nM

COc1cc(N2Cc3nn(-c4ccc(Cl)cc4)cc3C2=O)ccc1OCC(C)(C)O
Ki [2]: 107 nM

COc1cc(N2Cc3cn(-c4ccc(Cl)cc4)nc3C2=O)ccc1OCC(C)(C)OC(=O)CN
concentration (Plasma [11]): 2560 nM | Fu (Plasma [12]): 1% | Activity (Rattus norvegicus [13]): 1.8% | Ki [14]: 3.8 nM | concentration (Brain [15]): 1060 nM

COc1cc(N2Cc3nn(-c4ccc(Cl)cc4)nc3C2=O)ccc1OCC(O)C1CC1 (racemic)
Ki [2]: 112 nM

CNC1CCN(c2ccc(N3Cc4cn(-c5ccc(Cl)cc5)nc4C3=O)cc2)C1 (configuration not stated)
inhibition at 0.3 µM (hERG (KCNH2) [3]): 51% | Ki [2]: 0.8 nM

CN[C@@H]1CCN(c2ccc(N3Cc4cn(-c5ccc(Cl)cc5)nc4C3=O)cn2)C1
Ki [2]: 1.3 nM | inhibition at 1 µM (hERG (KCNH2) [6]): 50%

COc1cc(N2Cc3cn(-c4ccc(Cl)cc4)nc3C2=O)ccc1N1C[C@H](O)[C@@H](O)C1
IC50 [1]: > 30000 nM | Ki [2]: 11 nM | inhibition at 1 µM (hERG (KCNH2) [6]): < 5%

COc1cc(-n2cnc3cc(-c4ccc(Cl)cc4)sc3c2=O)ccc1OCC(C)(C)O
Ki [2]: 7.9 nM | IC50 [5]: 13 nM

COc1cc(N2Cc3nn(-c4ccc(Cl)cc4)nc3C2=O)ccc1OCCN1CCCC1
inhibition at 0.3 µM (hERG (KCNH2) [3]): 68% | logP [4]: 3.3 | Ki [2]: 2.3 nM

COc1cc(-n2cnc3cc(-c4ccc(Cl)cc4)sc3c2=O)ccc1OCC(C)(C)OC(=O)CN
Activity (Rattus norvegicus [16]): 8.8% | Drug uptake (Brain [17]): 1610 nM | Ratio [18]: 1.6 | concentration (Plasma [19]): 546 nM | Ki [20]: 7.2 nM | BPR [21]: 1.7 | Fu (Plasma [22]): 0.7%

COc1cc(N2Cc3cn(-c4ccc(Cl)cc4)nc3C2=O)ccc1OCC(C)O (configuration not stated)
Ki [2]: 13 nM

CN[C@H]1CCN(c2ccc(N3Cc4cn(-c5ccc(Cl)cc5)nc4C3=O)cn2)C1
Ratio [23]: 145 | concentration at 20 h [24]: 131 nM | concentration at 20 h [25]: 2770 nM | Activity (Rattus norvegicus [26]): 2.2% | fraction unbound [27]: 0.042 | concentration at 20 h [28]: 1580 nM | concentration at 20 h [29]: 574 nM | Activity (Rattus norvegicus [30]): 7.5% | fraction unbound [31]: 0.042 | Ki [32]: 0.8 nM | fraction unbound [33]: 0.042 | Ki [2]: 0.96 nM | concentration at 20 h [34]: 739 nM | Drug uptake (Brain [35]): BLD | inhibition at 1 µM (hERG (KCNH2) [6]): 66% | Ratio [36]: 39 | Activity (Rattus norvegicus [37]): 3.8% | IC50 [5]: 241 nM

COc1cc(N2Cc3cn(-c4ccc(Cl)cc4)nc3C2=O)ccc1OCC(C)(C)O
Ki [2]: 8 nM | IC50 [5]: 1170 nM

N[C@H]1CCN(c2ccc(N3Cc4cn(-c5ccc(Cl)cc5)nc4C3=O)cn2)C1
Ki [2]: 2.1 nM | inhibition at 1 µM (hERG (KCNH2) [6]): 58%

COc1cc(N2Cc3nn(-c4ccc(Cl)cc4)nc3C2=O)ccc1OCC(C)(C)O
Ki [2]: 34 nM

COc1cc(N2Cc3cn(-c4ccc(Cl)cc4)nc3C2=O)ccc1OC[C@H](O)C1CC1
Ki [2]: 9 nM

COc1cc(N2Cc3nn(-c4ccc(Cl)cc4)cc3C2=O)ccc1OC[C@H](O)C1CC1
Ki [2]: 41 nM

CN(C)[C@H]1CCN(c2ccc(N3Cc4cn(-c5ccc(Cl)cc5)nc4C3=O)cn2)C1
Ki [2]: 0.7 nM | inhibition at 1 µM (hERG (KCNH2) [6]): 50%

Reference: ChEMBL document CHEMBL3588848, “Dihydropyrrolopyrazol-6-one MCHR1 antagonists for the treatment of obesity: Insights on in vivo efficacy from a novel FLIPR assay setup” (Bioorg Med Chem Lett, 2015)
